Measurements taken from patent publication US11026999B2, “Insulin glargine/lixisenatide fixed ratio formulation” (SANOFI-AVENTIS DEUTSCHLAND GMBH, priority 2013, dated 2021).

Assays:
type 2 diabetic patients [1] = assay: HbA1c, 24-week phase 2 study on top of metformin (Example 1); assay type: in vivo, human; conditions: mITT population; for HbA1c change from baseline to Week 24 (LOCF), LS Mean (SE): ANCOVA
Description: A randomized, 24-week, open-label, 2-arm parallel-group, multicenter study comparing the efficacy and safety of insulin glargine/lixisenatide fixed ratio combination versus insulin glargine on top of metformin in type 2 diabetic patients.
Methodology: This was an open-label, 1:1 randomized, active-controlled, 2-arm, 24-week duration, parallel-group study comparing: • Insulin glargine/lixisenatide fixed ratio (2 U of insulin glargine for 1 μg of lixisenatide) combination • Insulin glargine alone
Diagnosis and criteria for inclusion: Patients with type 2 diabetes mellitus diagnosed for at least 1 year, treated with metformin at a stable dose of at least 1.5 g/day for at least 3 months prior to screening visit, and with HbA1c ≥7%, and ≤10% at screening.
In both groups, the initial daily dose of insulin glargine to be administered during the first week of treatment was 10 U. Afterwards, the dose was adjusted to achieve a target fasting SMPG in the range of 80 to 100 mg/dL (4.4 to 5.6 mmol/L). The dose was titrated weekly until the patient reached the target fasting SMPG. Thereafter, until the end of the study, the dose was adjusted as necessary to maintain a fasting SMPG between 80 and 100 mg/dL (4.4 and 5.6 mmol/1), inclusive. Doses could be reduced or modified at any time for hypoglycemia.
If a 60 U/30 μg dose was not sufficient to maintain FPG/HbA1c below predefined thresholds values, the dose was to be kept at 60 U and a rescue therapy was to be introduced.
(§1) Criteria for Evaluation: • Efficacy: • Primary Endpoint: • Change in HbA1c from baseline to Week 24 • Secondary Endpoints: • Change in 2-hour PPG during meal test from baseline to Week 24 • Change in 2-hour plasma glucose excursion during meal test from baseline to Week 24 • Percentage of patients reaching HbA1c ≤6.5% or <7% at Week 24 • Change in 7-point SMPG profiles from baseline to Week 24 (each time point and mean daily value) • Change in body weight from baseline to Week 24, • Average daily Insulin glargine dose at Week 24 • Change in FPG from baseline to Week 24 • Percentage of patients requiring rescue therapy during the 24-week open-label treatment period • Change in 30-minute and 1-hour PPG and plasma glucose excursion during meal test from baseline to week 24 • Percentage of patients reaching HbA1c <7% at week 24 with no documented symptomatic hypoglycemia during the 24-week open label treatment period • Percentage of patients reaching HbA1c <7% with no weight gain at week 24
The primary endpoint (change in HbA1c from baseline to week 24) was analyzed using an analysis of covariance (ANCOVA) model with treatment (insulin glargine/lixisenatide fixed ratio combination, insulin glargine alone), randomization strata of screening HbA1c (<8%, ≥8%), randomization strata of screening BMI (<30 kg/m^2, ≥30 kg/m^2) and country as fixed effects and using the baseline HbA1c value as a covariate.
The non-inferiority of insulin glargine/lixisenatide fixed ratio combination to insulin glargine alone was tested using a 1-sided statistical test with alpha level of 0.025 and a non-inferiority margin of 0.4% HbA1c. […] If non-inferiority is established, then a corresponding check of statistical superiority of insulin glargine/lixisenatide fixed ratio combination over insulin glargine alone would be performed for the primary endpoint.
All categorical secondary efficacy endpoints were analyzed by using Cochran-Mantel-Haenszel (CMH) method stratified by randomization strata of screening HbA1c (<8%, ≥8%) and BMI (<30 kg/m^2, ≥30 kg/m^2).

type 2 diabetic patients [2] = assay: 7-point Self-Monitored Plasma Glucose (SMPG) profile (Example 1); assay type: in vivo, human; conditions: mITT population
Excerpt: In yet another aspect of the present invention, the composition as described herein can be used for improving average 7-point SMPG profile. […] Self-monitored plasma glucose (SMPG), as used herein, is in particular the “7-point Self Monitored Plasma Glucose”. “7-point Self Monitored Plasma Glucose” in particular refers to the measurement of plasma glucose seven times a day and calculation of the average plasma glucose concentration therefrom. The “7-point Self Monitored Plasma Glucose” value is in particular an average plasma glucose concentration including fasting and postprandial conditions. In particular, measurements of plasma glucose concentration are performed pre-breakfast, post-breakfast (e.g. 2-hour post-breakfast), pre-lunch, post-lunch (e.g. 2-hour post-lunch), pre-dinner, post-dinner (e.g. 2-hour post-dinner) and at bedtime (see also FIG. 3). The treatment by the combination of the present invention, as described herein, can improve the self-monitored plasma glucose.
as §1
All continuous secondary efficacy endpoints were analyzed using a similar ANCOVA model with treatment, randomization strata of screening HbA1c (<8%, ≥8%), randomization strata of screening BMI (<30 kg/m^2, ≥30 kg/m^2) and country as fixed effects and using the baseline value of the corresponding parameter as a covariate. Insulin glargine dose was not included in the ANCOVA model as a covariate since patients enrolled were insulin-naïve.

type 2 diabetic patients [3] = assay: Major cardiovascular events adjudicated by CAC (Example 1); design: species or system human; conditions: in vivo
Excerpt: One patient in the combination group and one patient in the insulin glargine group had respectively two events (hospitalization for unstable angina and percutaneous coronary intervention (PCI]) and one event (PCI) adjudicated as major cardiovascular events by cardiovascular events adjudication committee (CAC).

type 2 diabetic patients [4] = assay: Premature treatment discontinuation, patient disposition (Example 1); conditions: human, in vivo
Excerpt: During the 24-week study treatment period, 11 (6.8%) combination-treated patients prematurely discontinued the IMP, compared with 3 (1.9%) insulin glargine-treated patients. For combination-treated patients, the most common reasons for treatment discontinuation was “adverse event” (6 patients [3.7%] versus 0 patient in the insulin glargine group) followed by “other reasons” (4 patients [2.5%] versus 2 patients [1.2%] in the insulin glargine group).

## Gly(A21)-Arg(B31)-Arg(B32)-human insulin [Insulin Glargine]
Type 2 diabetic patients [1]
  HbA1c at Week 24 (LOCF), Mean (SD): 6.47 (0.64) %
  HbA1c at Week 24 (LOCF), Median: 6.40%
  HbA1c change from baseline to Week 24 (LOCF), Mean (SD): −1.54 (0.87) %
  HbA1c change from baseline to Week 24 (LOCF), Median: −1.40%
  Number (%) of patients with HbA1c <7.0% at Week 24: 126 (78.3%) n (%)
  Number (%) of patients with HbA1c ≤6.5% at Week 24: 104 (64.6%) n (%)
  Percentage of patients reaching HbA1c <7% at Week 24: 78.3%
  Percentage of patients reaching HbA1c ≤6.5% at Week 24: 64.6%
  HbA1c change from baseline to Week 24 (LOCF), LS Mean (SE): −1.64 (0.057) %
Type 2 diabetic patients [1]; listed as insulin glargine
  HbA1c change from baseline to Week 24 (LOCF), LS Mean (SE): −1.64%
Type 2 diabetic patients [2]
  Average 7-point SMPG at Week 24 (LOCF), Mean (SD): 7.01 (1.15) mmol/L
  Average 7-point SMPG at Week 24 (LOCF), Median: 6.94 mmol/L
  Average 7-point SMPG change from baseline to Week 24 (LOCF), Mean (SD): −2.81 (2.18) mmol/L
  Average 7-point SMPG change from baseline to Week 24 (LOCF), Median: -2.31 mmol/L
Type 2 diabetic patients [2]; ANCOVA
  Average 7-point SMPG change from baseline to Week 24 (LOCF), LS Mean (SE): −2.93 (0.101) mmol/L
Type 2 diabetic patients [3]
  Events adjudicated as major cardiovascular events by CAC: one
  Patients with events adjudicated as major cardiovascular events by CAC: one
Type 2 diabetic patients [4]
  Patients who prematurely discontinued the IMP: 3 (1.9%) n (%)
  Treatment discontinuation, reason adverse event: 0 n (%)
